According to paper PMC11822212, “High-throughput screening identifies Aurora kinase B as a critical therapeutic target for Merkel cell carcinoma” (Nature Communications, 2025):
Where “and” joins values, the source holds several entries; their conditions need not be identical. Equal entries are not always repeated. Where two headings read alike, the source gives them in different places.

Tests used:
Assay in all cases: qHTS cell viability (CellTiter-Glo, 72 h; primary and follow-up small molecule screen)
Assay type in all cases: cell-based, human
UISO cells (VN-MCC) = test system: UISO cells (VN-MCC)
MKL-2 cells (VP-MCC) = test system: MKL-2 cells (VP-MCC)
MCC26 cells (VN-MCC) = test system: MCC26 cells (VN-MCC)
MKL-1 cells (VP-MCC) = test system: MKL-1 cells (VP-MCC)
MCC13 cells (VN-MCC) = test system: MCC13 cells (VN-MCC)
WAGA cells (VP-MCC) = test system: WAGA cells (VP-MCC)
[1] = follow-up screen, UISO, replicate 1
[2] = follow-up screen, UISO, replicate 2
[3] = follow-up screen, UISO, replicate 3
[4] = follow-up screen, MKL-2, replicate 1
[5] = follow-up screen, MKL-2, replicate 2
[6] = follow-up screen, MKL-2, replicate 3
[7] = follow-up screen, MCC26, replicate 1
[8] = follow-up screen, MCC26, replicate 2
[9] = follow-up screen, MCC26, replicate 3
[10] = follow-up screen, MKL-1, replicate 1
[11] = follow-up screen, MKL-1, replicate 2
[12] = follow-up screen, MKL-1, replicate 3
[13] = follow-up screen, MCC13, replicate 1
[14] = follow-up screen, MCC13, replicate 2
[15] = follow-up screen, MCC13, replicate 3
[16] = follow-up screen, WAGA, replicate 1
[17] = follow-up screen, WAGA, replicate 2
[18] = follow-up screen, WAGA, replicate 3

| SMILES | Area under the dose-response curve (AUC) UISO Replicate 1 (UISO cells (VN-MCC); [1]) | Area under the dose-response curve (AUC) UISO Replicate 2 (UISO cells (VN-MCC); [2]) | Area under the dose-response curve (AUC) UISO Replicate 3 (UISO cells (VN-MCC); [3]) | Area under the dose-response curve (AUC) MKL-2 Replicate 1 (MKL-2 cells (VP-MCC); [4]) | Area under the dose-response curve (AUC) MKL-2 Replicate 2 (MKL-2 cells (VP-MCC); [5]) | Area under the dose-response curve (AUC) MKL-2 Replicate 3 (MKL-2 cells (VP-MCC); [6]) | Area under the dose-response curve (AUC) MCC26 Replicate 1 (MCC26 cells (VN-MCC); [7]) | Area under the dose-response curve (AUC) MCC26 Replicate 2 (MCC26 cells (VN-MCC); [8]) | Area under the dose-response curve (AUC) MCC26 Replicate 3 (MCC26 cells (VN-MCC); [9]) | Area under the dose-response curve (AUC) MKL-1 Replicate 1 (MKL-1 cells (VP-MCC); [10]) | Area under the dose-response curve (AUC) MKL-1 Replicate 2 (MKL-1 cells (VP-MCC); [11]) | Area under the dose-response curve (AUC) MKL-1 Replicate 3 (MKL-1 cells (VP-MCC); [12]) | Area under the dose-response curve (AUC) MCC13 Replicate 1 (MCC13 cells (VN-MCC); [13]) | Area under the dose-response curve (AUC) MCC13 Replicate 2 (MCC13 cells (VN-MCC); [14]) | Area under the dose-response curve (AUC) MCC13 Replicate 3 (MCC13 cells (VN-MCC); [15]) | Area under the dose-response curve (AUC) WAGA Replicate 1 (WAGA cells (VP-MCC); [16]) | Area under the dose-response curve (AUC) WAGA Replicate 2 (WAGA cells (VP-MCC); [17]) | Area under the dose-response curve (AUC) WAGA Replicate 3 (WAGA cells (VP-MCC); [18]) | other results |
| --- | --- | --- | --- | --- | --- | --- | --- | --- | --- | --- | --- | --- | --- | --- | --- | --- | --- | --- | --- |
| C[C@@H]1O[C@@H](O[C@H]2C[C@@H](O)[C@]3(CO)[C@H]4[C@H](O)C[C@]5(C)[C@@H](C6=CC(=O)OC6)CC[C@]5(O)[C@@H]4CC[C@]3(O)C2)[C@H](O)[C@H](O)[C@H]1O [G-Strophanthin] | 241.1 | 235.2 | 205.5 | 279.7 | 288.8 | 290.5 | 280.5 | 322.9 | 231.8 | 297.3 | 274.0 | 262.6 | 250.1 | 222.2 | 219.6 | 307.5 | 286.8 | 292.2 | – |
| O=c1c(O)c(-c2ccccc2)oc2cc(O)cc(O)c12 [GALANGIN] | 448.5 | 479.0 | 418.3 | 358.3 | 486.3 | 480.7 | 408.8 | 418.1 | 468.3 | 418.0 | 452.0 | 473.1 | 501.1 | 489.1 | 476.8 | 517.0 | 423.5 | 495.5 | – |
| CC(C)=CCC[C@]1(C)C=Cc2c(O)c3c(c(CC=C(C)C)c2O1)O[C@]12C(=C[C@@H]4C[C@H]1C(C)(C)O[C@@]2(C/C=C(/C)C(=O)O)C4=O)C3=O [GAMBOGIC ACID] | 286.6 | 299.4 | 341.5 | 279.3 | 285.4 | 317.0 | 329.0 | 325.1 | 343.3 | 308.8 | 334.5 | 328.9 | 387.5 | 370.7 | 367.8 | 304.1 | 265.2 | 369.1 | – |
| O=C(/C=C/c1ccc(/C=C/C(=O)Nc2ccc(C3=NCCN3)cc2)cc1)Nc1ccc(C2=NCCN2)cc1 [GW 4869] | – | – | – | – | – | – | – | – | – | – | – | – | – | – | – | – | – | – | Area under the dose-response curve (AUC) UISO Replicate 1 (UISO cells (VN-MCC)): 438.7; Area under the dose-response curve (AUC) UISO Replicate 2 (UISO cells (VN-MCC)): 454.7; Area under the dose-response curve (AUC) UISO Replicate 3 (UISO cells (VN-MCC)): 432.9; Area under the dose-response curve (AUC) MKL-2 Replicate 1 (MKL-2 cells (VP-MCC)): 446.9; Area under the dose-response curve (AUC) MKL-2 Replicate 2 (MKL-2 cells (VP-MCC)): 473.7; Area under the dose-response curve (AUC) MKL-2 Replicate 3 (MKL-2 cells (VP-MCC)): 455.4; Area under the dose-response curve (AUC) MCC26 Replicate 1 (MCC26 cells (VN-MCC)): 426.9; Area under the dose-response curve (AUC) MCC26 Replicate 2 (MCC26 cells (VN-MCC)): 422.1; Area under the dose-response curve (AUC) MCC26 Replicate 3 (MCC26 cells (VN-MCC)): 445.3; Area under the dose-response curve (AUC) MKL-1 Replicate 1 (MKL-1 cells (VP-MCC)): 478.1; Area under the dose-response curve (AUC) MKL-1 Replicate 2 (MKL-1 cells (VP-MCC)): 455.5; Area under the dose-response curve (AUC) MKL-1 Replicate 3 (MKL-1 cells (VP-MCC)): 501.6; Area under the dose-response curve (AUC) MCC13 Replicate 1 (MCC13 cells (VN-MCC)): 485.4; Area under the dose-response curve (AUC) MCC13 Replicate 2 (MCC13 cells (VN-MCC)): 474.1; Area under the dose-response curve (AUC) MCC13 Replicate 3 (MCC13 cells (VN-MCC)): 483.0; Area under the dose-response curve (AUC) WAGA Replicate 1 (WAGA cells (VP-MCC)): 473.9; Area under the dose-response curve (AUC) WAGA Replicate 2 (WAGA cells (VP-MCC)): 513.7; Area under the dose-response curve (AUC) WAGA Replicate 3 (WAGA cells (VP-MCC)): 487.4 |
| CCC(=O)NC[C@H](Cc1ccc(OCCc2nc(-c3ccccc3)oc2C)cc1)N/C(C)=C\C(=O)c1ccc(C(F)(F)F)cc1 [GW-6471] | – | – | – | – | – | – | – | – | – | – | – | – | – | – | – | – | – | – | Area under the dose-response curve (AUC) UISO Replicate 1 (UISO cells (VN-MCC)): 430.2; Area under the dose-response curve (AUC) UISO Replicate 2 (UISO cells (VN-MCC)): 426.3; Area under the dose-response curve (AUC) UISO Replicate 3 (UISO cells (VN-MCC)): 403.1; Area under the dose-response curve (AUC) MKL-2 Replicate 1 (MKL-2 cells (VP-MCC)): 432.8; Area under the dose-response curve (AUC) MKL-2 Replicate 2 (MKL-2 cells (VP-MCC)): 489.1; Area under the dose-response curve (AUC) MKL-2 Replicate 3 (MKL-2 cells (VP-MCC)): 475.3; Area under the dose-response curve (AUC) MCC26 Replicate 1 (MCC26 cells (VN-MCC)): 466.5; Area under the dose-response curve (AUC) MCC26 Replicate 2 (MCC26 cells (VN-MCC)): 438.7; Area under the dose-response curve (AUC) MCC26 Replicate 3 (MCC26 cells (VN-MCC)): 475.7; Area under the dose-response curve (AUC) MKL-1 Replicate 1 (MKL-1 cells (VP-MCC)): 475.3; Area under the dose-response curve (AUC) MKL-1 Replicate 2 (MKL-1 cells (VP-MCC)): 443.7; Area under the dose-response curve (AUC) MKL-1 Replicate 3 (MKL-1 cells (VP-MCC)): 500.6; Area under the dose-response curve (AUC) MCC13 Replicate 1 (MCC13 cells (VN-MCC)): 508.4; Area under the dose-response curve (AUC) MCC13 Replicate 2 (MCC13 cells (VN-MCC)): 489.8; Area under the dose-response curve (AUC) MCC13 Replicate 3 (MCC13 cells (VN-MCC)): 459.0; Area under the dose-response curve (AUC) WAGA Replicate 1 (WAGA cells (VP-MCC)): 517.9; Area under the dose-response curve (AUC) WAGA Replicate 2 (WAGA cells (VP-MCC)): 512.0; Area under the dose-response curve (AUC) WAGA Replicate 3 (WAGA cells (VP-MCC)): 484.1 |
| O=c1c(O)c(-c2ccccc2)oc2cc(O)cc(O)c12 [Galangin] | 481.0 | 489.8 | 457.6 | 477.3 | 508.2 | 500.6 | 449.4 | 457.3 | 461.1 | 490.3 | 490.8 | 492.0 | 503.7 | 491.8 | 491.4 | 519.0 | 499.5 | 488.3 | – |
| CCOC(=O)c1cnc2ccc(-c3cncc(NS(=O)(=O)c4ccccc4)c3)cn12 [HS-173] | – | – | – | – | – | – | – | – | – | – | – | – | – | – | – | – | – | – | Area under the dose-response curve (AUC) (UISO cells (VN-MCC)): 373.6 and 378.4 and 376.1; Area under the dose-response curve (AUC) (MKL-2 cells (VP-MCC)): 425.2 and 393.3 and 372.1; Area under the dose-response curve (AUC) (MCC26 cells (VN-MCC)): 371.1 and 368.1 and 383.3; Area under the dose-response curve (AUC) (MKL-1 cells (VP-MCC)): 400.2 and 402.4 and 398.2; Area under the dose-response curve (AUC) (MCC13 cells (VN-MCC)): 410.4 and 416.6 and 423.4; Area under the dose-response curve (AUC) (WAGA cells (VP-MCC)): 390.4 and 391.0 and 384.0 |
